Legend:
[1] = Degree of vinyl conversion (DVC) by near infra-red spectra of copolymer beams; type: physicochemical
Protocol: (§1) Experimental resin (UPE) was formulated from the commercially available monomers urethane dimethacrylate (UDMA, 50.91% w/w), polyethylene glycol extended urethane dimethacrylate (PEG-U, 18.18% w/w), and ethyl 2-(hydroxymethyl)acrylate (EHMA, 30.91% w/w). A conventional visible light initiator system comprised of camphorquinone (0.2% w/w) and ethyl-4-N,N-dimethylamino benzoate (4EDMAB, 0.8% w/w) was utilized. […] Copolymer specimens (beams) were prepared by depositing UPE (UPE resin control) and AM-UPE resins into glass molds (2 mm×2 mm×25 mm) and photopolymerizing them with a dental curing light (Triad 2000, Dentsply, Charlotte, N.C., USA) for 2 minutes from two sides. Copolymer specimens (pellets) were prepared by depositing UPE and AM-UPE resins into a stainless-steel mold (1 mm×16 mm), sandwiched between two sheets of Mylar film and two glass slides and photopolymerized in the same manner as the beam samples. Degree of vinyl conversion (DVC) of UPE and AM-UPE resins was determined utilizing beam samples by collecting the near infra-red (NIR) spectra (Nexus 670, ThermoFisher, Madison, Wis., USA) before and 24 h after polymerization and calculating the reduction in absorption band at 6165 cm^−1 corresponding to the vinyl (C═C—H) overtone signal. By maintaining a constant specimen thickness, a need for an invariant internal standard was eliminated. The DVC was calculated as: […]
(§2) where Area(polymer) and Area(monomer) correspond to the areas under 6165 cm^−1 peaks after and before the polymerization, respectively. After DVC analysis, flexural strength (FS) and elastic modulus (E) of beam specimen were determined employing the Universal Testing Machine (Instron 5500R, Instron Corp., Canton, Mass., USA). The load was applied (at cross-head speed of 1 mm/min) to the center of a specimen positioned on a test device with supports 20 mm apart. The FS and E of the specimens (three replicates/experimental group) was calculated as instructed in the ISO4049:2009 document. Changes in hydrophilicity/hydrophobicity of UPE resins due to the introduction of AM monomers were assessed on pellet specimen by sessile drop contact angle (CA) measurements (drop shape analyzer DSA100, Krüss GmbH, Hamburg, Germany). Following the deposition of 4 μL water droplets on the resin pellets, the pellets were imaged after 1 min resting time with a camera at the points of intersection (three-phase contact points) between the drop contour and the projection of the surface (baseline). The CA water values were calculated employing the Krüss Advance software. At least four repetitive measurements were performed in each group. Analysis of variance (ANOVA) and Newman-Keuls multiple paired comparisons (at 95% confidence level) were used to analyze the experimental data as a function of resin composition and establish a statistical significance of differences between the experimental groups (WINKS 7.0.9, TexaSoft, Cedar Hills, Tex., USA).

[2] = Sessile drop water contact angle (CA) on resin pellets; type: physicochemical
Protocol: as §1, §2

[3] = system: mouse subcutaneous connective tissue fibroblasts (NCTC clone 929, CCL1); test: Direct contact cytotoxicity, LIVE/DEAD viability, CCL1 cells; type: cell-based
[4] = system: human gingival fibroblasts (HGF); test: Direct contact cytotoxicity, LIVE/DEAD viability, HGF cells; type: cell-based; settings: for effect of exposure time on HGF live cells, difference of means: 24 h vs 72 h, regardless of concentration; for effect of monomer concentration on HGF cell viability: two-fold serial dilutions, 24 h and 72 h
Protocol: (§3) Immortalized human gingival fibroblasts (HGF) were purchased from Applied Biological Materials, Inc. (Richmond, British Columbia, Canada). […] For experiments, cells were obtained from a subconfluent stock culture.
(§4) Direct contact cytotoxicity testing was conducted as previously described^7, 8. Briefly, cells were exposed to two-fold serial dilutions of AMadh series monomers or AMsil series monomers to approximate the maximum possible exposure, (Table 9). Table 9 illustrates biocompatibility testing using maximum possible monomer exposure (mmol/L), assuming 7% mass fraction in the restorative with a maximum of 2% leaching. To account for multiplicity and variable size of restorations, a two- and four-fold greater dilution was also included in the testing. After 24 and 72 h, cells were assessed for cell viability using the LIVE/DEAD® Viability/Cytotoxicity kit (Life Technologies, Corp., Grand Island, N.Y.). Cellular metabolic activity was subsequently assessed using the CellTiter® AQueous One Solution Reagent (Promega, Corp., Madison, Wis.). Negative controls were without the novel monomer and/or cells. Mean+standard error was obtained from five independent replicates tested in triplicate.

CCL1 cells = test: Cellular metabolic activity (CellTiter AQueous One Solution Reagent), CCL1 cells; type: cell-based; settings: for effect of monomer concentration on CCL1 metabolic activity: two-fold serial dilutions, 24 h and 72 h
[5] = system: human gingival fibroblasts (HGF); test: Cellular metabolic activity (CellTiter AQueous One Solution Reagent), HGF cells; type: cell-based; settings: for effect on metabolic activity of HGF cells: two-fold serial dilutions, 24 h and 72 h
Protocol: as §3, §4

C=C(C)C(=O)OCC[N+](C)(C)CCCCCC(=O)O.[Br-] [AMadh1, 5-carboxy-N-(2-(methacryloyloxy)ethyl)-N,N-dimethylpentan-1-aminium bromide]
increase of DVC relative to UPE resin control ([1]; 10 mass percent in UPE resin): 2%
increase of DVC relative to UPE resin control ([1]; 20 mass percent in UPE resin): 3%
effect on hydrophobic-hydrophilic properties of the copolymer ([2]; 10 and 20 mass percent in UPE resin): did not alter the hydrophobic-hydrophilic properties
decrease of mean number of live CCL1 cells compared to all lower concentrations ([3]; 10.6 mmol/L, 72 h exposure): ≤ 2.5 fold
effect of monomer concentration on CCL1 cell viability ([3]; 24 h exposure, ≤10.6 mmol/L): insignificant
effect of monomer concentration on CCL1 cell viability ([3]; two-fold serial dilutions, 24 h and 72 h): exerted a main effect
dead HGF cells ([4]; 0.08 mmol/L, 24 h): 102.1 ± 0.9 % control
live HGF cells ([4]; 0.08 mmol/L, 24 h): 92.8 ± 11.3 % control
dead HGF cells ([4]; 0.08 mmol/L, 72 h): 99.5 ± 8.0 % control
live HGF cells ([4]; 0.08 mmol/L, 72 h): 121.6 ± 12.6 % control
dead HGF cells ([4]; 0.17 mmol/L, 24 h): 99.1 ± 1.7 % control
live HGF cells ([4]; 0.17 mmol/L, 24 h): 77.3 ± 15.9 % control
dead HGF cells ([4]; 0.17 mmol/L, 72 h): 98.8 ± 9.1 % control
live HGF cells ([4]; 0.17 mmol/L, 72 h): 95.1 ± 14.4 % control
dead HGF cells ([4]; 0.33 mmol/L, 24 h): 103.5 ± 3.7 % control
live HGF cells ([4]; 0.33 mmol/L, 24 h): 110.4 ± 9.7 % control
dead HGF cells ([4]; 0.33 mmol/L, 72 h): 102.0 ± 12.8 % control
live HGF cells ([4]; 0.33 mmol/L, 72 h): 116.8 ± 12.3 % control
dead HGF cells ([4]; 0.66 mmol/L, 24 h): 101.5 ± 2.5 % control
live HGF cells ([4]; 0.66 mmol/L, 24 h): 107.4 ± 4.7 % control
dead HGF cells ([4]; 0.66 mmol/L, 72 h): 92.1 ± 8.7 % control
live HGF cells ([4]; 0.66 mmol/L, 72 h): 133.0 ± 8.4 % control
dead HGF cells ([4]; 1.33 mmol/L, 24 h): 110.9 ± 7.1 % control
live HGF cells ([4]; 1.33 mmol/L, 24 h): 121.8 ± 8.2 % control
dead HGF cells ([4]; 1.33 mmol/L, 72 h): 89.5 ± 8.9 % control
live HGF cells ([4]; 1.33 mmol/L, 72 h): 107.6 ± 6.9 % control
dead HGF cells ([4]; 2.65 mmol/L, 24 h): 100.4 ± 1.0 % control
live HGF cells ([4]; 2.65 mmol/L, 24 h): 111.7 ± 10.0 % control
dead HGF cells ([4]; 2.65 mmol/L, 72 h): 104.0 ± 17.1 % control
live HGF cells ([4]; 2.65 mmol/L, 72 h): 107.8 ± 4.0 % control
dead HGF cells ([4]; 5.3 mmol/L, 24 h): 102.7 ± 2.6 % control
live HGF cells ([4]; 5.3 mmol/L, 24 h): 108.8 ± 14.8 % control
dead HGF cells ([4]; 5.3 mmol/L, 72 h): 88.9 ± 6.8 % control
live HGF cells ([4]; 5.3 mmol/L, 72 h): 130.5 ± 9.2 % control
dead HGF cells ([4]; 10.6 mmol/L, 24 h): 100.9 ± 1.7 % control
live HGF cells ([4]; 10.6 mmol/L, 24 h): 92.4 ± 10.8 % control
dead HGF cells ([4]; 10.6 mmol/L, 72 h): 90.3 ± 11.6 % control
live HGF cells ([4]; 10.6 mmol/L, 72 h): 103.7 ± 7.8 % control
effect of exposure time on HGF live cells, difference of means [4]: 10.4%
effect of monomer concentration on HGF cell viability [4]: monomer concentration affected
number of live HGF cells in monomer-treated groups, median of least square means ([4]; ≤10.6 mmol/L, 24 h or 72 h, % control): 111.7%
effect of monomer concentration on CCL1 metabolic activity (CCL1 cells): A main effect
effect on metabolic activity of HGF cells [5]: Neither AMadh1 concentration nor time of exposure significantly affected the metabolic activity

C=C(C)C(=O)OCC[N+](C)(C)CCCCCCCCCCC(=O)O.[Br-] [AMadh2, 10-carboxy-N-(2-(methacryloyloxy)ethyl)-N,N-dimethyldecan-1-aminium bromide]
effect on hydrophobic-hydrophilic properties of the copolymer ([2]; 10 mass percent in UPE resin): a shift towards the lower CA values
reduction of water CA relative to UPE resin control ([2]; 10 mass percent in UPE resin): 18 °
effect on hydrophobic-hydrophilic properties of the copolymer ([2]; 20 mass percent in UPE resin): did not alter the hydrophobic-hydrophilic properties
percentage of live CCL1 cells, fold lower compared to concentrations ≤4.4 mmol/L ([3]; 8.8 mmol/L, 72 h exposure): at least 10 fold
least squares mean of live CCL1 cells, fold lower than at lower concentrations ([3]; 8.8 mmol/L, independent of time): approx. 2 fold
percent live CCL1 cells compared to control group (no monomer) ([3]; ≤2.2 mmol/L (24 h) and ≤0.28 mmol/L (72 h)): increased
effect of concentration on the number of dead CCL1 cells ([3]; ≤8.8 mmol/L): not statistically different
effect of exposure time on HGF live cells, difference of means [4]: ~16%
effect of monomer concentration on HGF cell viability [4]: no significant effect
CCL1 cell metabolic activity (CCL1 cells; 24 h, 8.8 mm/L): reduced
CCL1 cell metabolic activity (CCL1 cells; 72 h): markedly reduced
effect of monomer concentration on CCL1 metabolic activity (CCL1 cells): exerted an effect
time of exposure decreased HGF metabolic activity, difference of means ([5]; 24 h vs 72 h): 19.01
effect on metabolic activity of HGF cells [5]: not affected by the level of AMadh2

Source: US20200148803A1, “POLYMERIZABLE MULTIFUNCTIONAL ANTIMICROBIAL QUATERNARY AMMONIUM MONOMERS, METHODS OF SYNTHESIS, AND USES THEREOF” (ADA Foundation, priority 2018, published 2020)
